Source: US10947252B2, “Inhibitors of KEAP1-Nrf2 protein-protein interaction” (Janssen Pharmaceutica NV, priority 2018, dated 2021)

Test system: Glo-Response ARE-luc2P HEK293 cell line
Assay: ARE luciferase reporter cell-based assay;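 note: luciferase signal tracks Nrf2 activation of the ARE once compounds disrupt KEAP1-Nrf2 binding, read with One-Glo reagent, DMSO serving as low control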
Details: Homo sapiens, HEK293, 24 h, average of results obtained

SMILES	EC50
CCc1c([C@H](c2ccc(C)c(CN3C[C@H]4CCCCN4c4ncc(C)cc4S3(=O)=O)c2)C(C)C(=O)O)ccn2c(C(F)(F)F)nnc12 (relative stereo) [Example 515, (3*S)-3-(8-Ethyl-3-(trifluoromethyl)-[1,2,4]triazolo[4,3-a]pyridin-7-yl)-2-methyl-3-(4-methyl-3-(((*R)-3-methyl-5,5-dioxido-7,7a,8,9,10,11-hexahydro-6H-dipyrido[2,1-d:2′,3′-f][1,2,5]thiadiazepin-6-yl)methyl)phenyl)propanoic Acid]	1.33 nM
Cc1cc2cc([C@@H](c3ccc(C)c(CN4CC5(CCOCC5)Oc5nc(OCCN6CCCCC6)c(C)cc5S4(=O)=O)c3)C(C)(C)C(=O)O)n(C)c2nn1 (single isomer, unassigned) [Example 348, (*S)-3-(3,7-Dimethyl-7H-pyrrolo[2,3-c]pyridazine-6-yl)-2,2-dimethyl-3-(4-methyl-3-((8′-methyl-1′,1′-dioxido-7′-(2-(piperidine-1-yl)-ethoxy)2,3,5,6-tetrahydrospiro[pyran-4,4′-pyrido[2,3-b][1,4,5]oxathiazepin]-2′,(3′H)-yl)methyl)phenyl)propanoic Acid]	19.2 nM
Cc1ccc([C@H](CC(=O)O)c2ccn3c(C(F)F)nnc3c2C)cc1CN1C[C@@H]2CCCCN2c2ncc(C#N)cc2S1(=O)=O (relative stereo) [Example 31, (*S)-3-(3-(((*S)-3-Cyano-5,5-dioxido-7,7a,8,9,10,11-hexahydro-6H-dipyrido[2,1-d:2′,3′-f][1,2,5]thiadiazepin-6-yl)methyl)-4-methylphenyl)-3-(3-(difluoromethyl)-8-methyl-[1,2,4]triazolo[4,3-a]pyridin-7-yl)propanoic Acid]	9.9 nM
Cc1cnc2c(c1)S(=O)(=O)N(Cc1cc([C@@H](c3ccc4c(nnn4C4CC4)c3C)C(C)(C)C(=O)O)ccc1C)CC1(CNC1)O2 (single isomer, unassigned) [Example 646, (*S)-3-(1-Cyclopropyl-4-methyl-1H-benzo[d][1,2,3]triazol-5-yl)-2,2-dimethyl-3-(4-methyl-3-((8′-methyl-1′,1′-dioxidospiro[azetidine-3,4′-pyrido[2,3-b][1,4,5]oxathiazepin]-2′(3′H)-yl)methyl)phenyl)propanoic Acid]	66.7 nM
Cc1cnc2c(c1)S(=O)(=O)N(Cc1cc(C(c3ccn4c(C(F)F)nnc4c3C)C(C)(C)C(=O)O)ccc1C)CC1(CC1)O2 (racemic) [Example 559, (R/S)-3-(3-(Difluoromethyl)-8-methyl-[1,2,4]triazolo[4,3-a]pyridin-7-yl)-2,2-dimethyl-3-(4-methyl-3-((8′-methyl-1′,1′-dioxidospiro[cyclopropane-1,4′-pyrido[2,3-b][1,4,5]oxathiazepin]-2′(3′H)-yl)methyl)phenyl)propanoic Acid]	4.69 nM
Cc1ccc([C@@H](c2ccn3c(C(F)F)nnc3c2C)C(C)(C)C(=O)O)cc1CN1CC2(CC2)Oc2ncccc2S1(=O)=O (single isomer, unassigned) [Example 567, (*S)-3-(3-(Difluoromethyl)-8-methyl-[1,2,4]triazolo[4,3-a]pyridin-7-yl)-3-(3-((1′,1′-dioxidospiro[cyclopropane-1,4′-pyrido[2,3-b][1,4,5]oxathiazepin]-2′(3′H)-yl)methyl)-4-methylphenyl)-2,2-dimethylpropanoic Acid]	2.6 nM
Cc1cnc2c(c1)S(=O)(=O)N(Cc1cc(C(c3ccn4c(C(F)(F)F)nnc4c3)C(C)(C)C(=O)O)ccc1C)CC1(CC1)O2 (centres unmarked) [Example 322, 2,2-Dimethyl-3-(4-methyl-3-((8′-methyl-1′,1′-dioxidospiro[cyclopropane-1,4′-pyrido[2,3-b][1,4,5]oxathiazepin]-2′(3′H)-yl)methyl)phenyl)-3-(3-(trifluoromethyl)-[1,2,4]triazolo[4,3-a]pyridin-7-yl)propanoic Acid]	22.4 nM
Cc1ccc([C@H](CC(=O)O)c2ccn3c(C(F)F)nnc3c2C)cc1CN1C[C@H]2CCCCN2c2ncc(C#N)cc2S1(=O)=O (relative stereo) [Example 32, (*S)-3-(3-(((*R)-3-Cyano-5,5-dioxido-7,7a,8,9,10,11-hexahydro-6H-dipyrido[2,1-d:2′,3′-f][1,2,5]thiadiazepin-6-yl)methyl)-4-methylphenyl)-3-(3-(difluoromethyl)-8-methyl-[1,2,4]triazolo[4,3-a]pyridin-7-yl)propanoic Acid]	13.6 nM
Cc1ccc([C@H](CC(=O)O)c2ccc3c(nnn3C3CC3)c2C)cc1CN1CC2(CC2)N(C)c2ncccc2S1(=O)=O (single isomer, unassigned) [Example 225, (*S)-3-(1-Cyclopropyl-4-methyl-1H-benzo[d][1,2,3]triazol-5-yl)-3-(4-methyl-3-((5′-methyl-1′,1′-dioxido-5′H-spiro[cyclopropane-1,4′-pyrido[2,3-f][1,2,5]thiadiazepin]-2′(3′H)-yl)methyl)phenyl)propanoic Acid]	5 nM
CCn1nnc2c(C)c([C@H](CC(=O)O)c3ccc(C)c(CN4C[C@@H]5CCCN5c5ccccc5S4(=O)=O)c3)ccc21 (relative stereo) [Example 149, (*R)-3-[3-[(5,5-Dioxo-7a,8,9,10-tetrahydro-7H-pyrrolo[2,1-d][1,2,5]benzothiadiazepin-6-yl)methyl]-4-methyl-phenyl]-3-(1-ethyl-4-methyl-benzotriazol-5-yl)propanoic Acid]	250 nM
CCn1nnc2c(C)c([C@H](CC(=O)O)c3ccc(C)c(CN4C[C@H]5CCCN5c5ccccc5S4(=O)=O)c3)ccc21 (single isomer, unassigned) [Example 154, (*R)-3-(3-(((R)-5,5-Dioxido-7a,8,9,10-tetrahydrobenzo[f]pyrrolo[2,1-d][1,2,5]thiadiazepin-6(7H)-yl)methyl)-4-methylphenyl)-3-(1-ethyl-4-methyl-1H-benzo[d][1,2,3]triazol-5-yl)propanoic Acid]	59 nM
Cc1ccc([C@H](CC(=O)O)c2ccn3c(C(F)(F)F)nnc3c2C)cc1CN1C[C@@H]2CCCCN2c2ccccc2S1(=O)=O (relative stereo) [Example 299, (*S)-3-(3-(((*S)-5,5-Dioxido-7,7a,8,9,10,11-hexahydro-6H-benzo[f]pyrido[2,1-d][1,2,5]thiadiazepin-6-yl)methyl)-4-methylphenyl)-3-(8-methyl-3-(trifluoromethyl)-[1,2,4]triazolo[4,3-a]pyridin-7-yl)propanoic Acid]	11.4 nM
Cc1ccc([C@@H](c2cc(OC(F)F)c3c(c2)nnn3C)C(C)(C)C(=O)O)cc1CN1CC2(CCOCC2)Oc2ncccc2S1(=O)=O (single isomer, unassigned) [Example 426]	0.9 nM
CC[C@@H]1CN(Cc2cc([C@H](CC(=O)O)c3ccn4c(C(F)(F)F)nnc4c3C)ccc2C)S(=O)(=O)c2cc(C)cnc2O1 (relative stereo) [Example 194, (*S)-3-(3-(((*R)-4-Ethyl-8-methyl-1,1-dioxido-3,4-dihydro-2H-pyrido[2,3-b][1,4,5]oxathiazepin-2-yl)methyl)-4-methylphenyl)-3-(8-methyl-3-(trifluoromethyl)-[1,2,4]triazolo[4,3-a]pyridin-7-yl)propanoic Acid]	2 nM
Cc1c(C(CC(=O)O)c2ccc(Cl)c(CN3CC4(COC4)Oc4ccccc4S3(=O)=O)c2)ccn2c(C(F)(F)F)nnc12 (centres unmarked) [Example 95]	1080 nM
CCn1nnc2c(C)c([C@@H](CC(=O)O)c3ccc(C)c(CN4C[C@@H]5COCCN5c5ncccc5S4(=O)=O)c3)ccc21 (single isomer, unassigned) [Example 139, (*S)-3-(3-(((*R)-5,5-Dioxido-7a,8,10,11-tetrahydro-[1,4]oxazino[3,4-d]pyrido[2,3-f][1,2,5]thiadiazepin-6(7H)-yl)methyl)-4-methylphenyl)-3-(1-ethyl-4-methyl-1H-benzo[d][1,2,3]triazol-5-yl)propanoic Acid]	3.3 nM
CCn1nnc2c(C)c([C@@H](CC(=O)O)c3ccc(C)c(CN4CC(C)(C)Oc5ccccc5S4(=O)=O)c3)ccc21 (single isomer, unassigned) [Example 158, (*S)-3-(3-((4,4-Dimethyl-1,1-dioxido-3,4-dihydro-2H-benzo[b][1,4,5]oxathiazepin-2-yl)methyl)-4-methylphenyl)-3-(1-ethyl-4-methyl-1H-benzo[d][1,2,3]triazol-5-yl)propanoic Acid]	6.2 nM
CCn1nnc2c(C)c([C@H](CC(=O)O)c3ccc(C)c(CN4C[C@H]5COCCN5c5ncccc5S4(=O)=O)c3)ccc21 (single isomer, unassigned) [Example 137, (*R)-3-(3-(((*S)-5,5-Dioxido-7a,8,10,11-tetrahydro-[1,4]oxazino[3,4-d]pyrido[2,3-f][1,2,5]thiadiazepin-6(7H)-yl)methyl)-4-methylphenyl)-3-(1-ethyl-4-methyl-1H-benzo[d][1,2,3]triazol-5-yl)propanoic Acid]	300 nM
Cc1cnc2c(c1)S(=O)(=O)N(Cc1cc([C@H](CC(=O)O)c3ccn4c(C(F)F)nnc4c3C)ccc1C)C[C@H]1CCCCN21 (stereo in doubt) [Example 503, (*S)-3-(3-(Difluoromethyl)-8-methyl-[1,2,4]triazolo[4,3-a]pyridin-7-yl)-3-(4-methyl-3-(((*R)-3-methyl-5,5-dioxido-7,7a,8,9,10,11-hexahydro-6H-dipyrido[2,1-d:2′,3′-f][1,2,5]thiadiazepin-6-yl)methyl)phenyl)propanoic Acid]	2.58 nM
Cc1ccc([C@H](CC(=O)O)c2ccn3c(C(F)F)nnc3c2C)cc1CN1C[C@@H]2CCCCN2c2ncc(F)cc2S1(=O)=O (relative stereo) [Example 511, (*S)-3-(3-(Difluoromethyl)-8-methyl-[1,2,4]triazolo[4,3-a]pyridin-7-yl)-3-(3-(((*S)-3-fluoro-5,5-dioxido-7,7a,8,9,10,11-hexahydro-6H-dipyrido[2,1-d:2′,3′-f][1,2,5]thiadiazepin-6-yl)methyl)-4-methylphenyl)propanoic Acid]	1.52 nM
